How the values were obtained:
[1] = Stability test: heating in sodium citrate buffer, remaining peptide by reverse phase HPLC; settings: for Stability (ratio of eluted peak area A after heating to area B without heat treatment): 0.1 M sodium citrate buffer pH 6.0, 10 μg/ml, sealed tube, 80° C., 24 hours, reverse phase HPLC
Method: The (Oct^1, Cys(CA)^7)-CCT was dissolved in 0.1 M sodium citrate buffer (pH 6.0) to a concentration of 10 μg/ml. One ml of this solution was left to stand in a sealed tube at 80° C. for 24 hours. By analysis according to the reverse phase HPLC by use of the measurement conditions (1), the eluted peak area A of the remaining (Oct^1, Cys(CA)^7)-CCT was determined. Similarly, the eluted peak area B of the (Oct^1, Cys(CA)^7)-CCT in the sample solution not subjected to the heat treatment was determined, and the ratio of A to B (%) was defined as the index.

[2] = Biological activity (calcitonin activity, MRC U/mg), assayed by the method of Japanese Provisional Patent Publication No. 123500/1985; format: in vivo; settings: for biological activity: method of Japanese Provisional Patent Publication No. 123500/1985; for biological activity, in words, compared with Example 1: measured as in Example 1
Method: The crude (Oct^1, Cys(CA)^7)-CCT obtained was dissolved in a 1 M acetic acid (5 mg/ml) and purified by the reverse phase high performance liquid chromatography. Chemcopack ODS-H (trade name, .phi.: 10 mm×250 mm) column produced by Chemco Co. was used, with the eluents employed being water (100) - 10% TFA (1) for the eluent A and water (40)-acetonitrile (60) - 10% TFA (1) for the eluent B, and the elution was effected under the linear concentration gradient from the eluent A to the eluent B. Here, the numerals within bracckets represent volume ratios. The fraction corresponding to (Oct^1, Cys(CA)^7)-CCT was collected and lyophilized to obtain 2.8 mg of white powder. The biological activity of the white powder obtained was assayed according to the method as described in Japanese Provisional Patent Publication No. 123500/1985.

Row | Substance | Stability (ratio of eluted peak area A after heating to area B without heat treatment) [1] [%] | biological activity [2] [MRC U/mg] | biological activity, in words, compared with Example 1 [2] | stability, in words, compared with Example 1 ([1]; measured as in Example 1)
1 | (Oct^1, Ala^3, Cys(CA)^7)-CCT | 90 | 6100 | – | –
2 | (Oct^1, Cys(Acm)^7)-CCT | – | 5500 | – | –
3 | (Oct^1, Cys(Acm)^7)-ECT | – | 5400 | – | –
4 | (Oct^1, Cys(CA)^7)-CCT | 95 | 5400 | equal to that obtained in Example 1 | –
5 | (Oct^1, Cys^7)-CCT | – | – | substantially equal to those of (Oct^1, Cys(CA)^7)-CCT of Example 1 | substantially equal to those of (Oct^1, Cys(CA)^7)-CCT of Example 1
6 | (Oct^1, Thr^3, Cys(Acm)^7)-CCT | 82 | 7800 | – | –
7 | (Oct^1, Thr^3, Cys(CA)^7)-CCT | 95 | 7800 | – | –

— patent US5010174A, “Novel calcitonin derivative and salt thereof” (Mitsubishi Petrochemical Co., Ltd., priority 1987, dated 1991)
